# Measured values reported in patent publication US8530461B2 (Boehringer Ingelheim International GmbH, priority 2011, dated 2013).
# pIC50: −log10 of the molar value.
# Target: T1, human ACC2 (Homo sapiens, UniProt O00763)
# T1 construct: made in house; host or cells: insect cells (baculoviral expression system)
# Assay: ACC2 assay, spectrophotometric 384 well assay (NADH-linked, coupled lactate dehydrogenase/pyruvate kinase)
# Assay type: biochemical
# Conditions: ACC2 assay; human ACC2 construct lacking 128 N-terminal amino acids; 25° C., 340 nm, 15 minutes; read-out: IC50
# Procedure: Spectrophotometric 384 Well Assay
# Malonyl CoA formation by acetyl CoA carboxylases is stoichometrically linked to the consumption of ATP. ACC2 activity is measured in a NADH-linked kinetic method measuring ADP generated during the ACC reaction using a coupled lactate dehydrogenase/pyruvate kinase reaction.
# For biological testing, a human ACC2 construct which lacks the 128 amino acids at the N-terminus for increased solubility (nt 385-6966 in Genbank entry AJ575592) is cloned. The protein is then expressed in insect cells using a baculoviral expression system. Protein purification is performed by anion exchange.
# All compounds are dissolved in dimethyl sulfoxide (DMSO) to a concentration of 10 mM.
# Assay reactions are then carried out in 384-well plates, with hACC2 in an appropriate dilution and at final assay concentrations (f.c.) of 100 mM Tris (pH 7.5), 10 mM trisodium citrate, 25 mM KHCO3, 10 mM MgCl2, 0.5 mg/ml BSA, 3.75 mM reduced L-glutathione, 15 U/ml lactate dehydrogenase, 0.5 mM phosphoenolpyruvate, 15 U/ml pyruvate kinase, compounds at different concentrations at final DMSO concentrations of 1%.
# The enzymatic reaction is then started by addition of a mixture of NADH, acetyl Coenzyme A (both […].) and ATP (500 uM f.c.). The decrease of the optical density (slope S) is then determined at 25° C. at a wavelength of 340 nm over 15 minutes in a spectrophotometric reader.
# Each assay microtiter plate contains wells with vehicle instead of compound as controls for the non-inhibited enzyme (100% CTL; ‘HIGH’) and wells without acetyl-CoA as controls for non-specific NADH degradation (0% CTL; ‘LOW’).
# The slope S is used for calculation of % CTL=(S(compound)−S(‘LOW’))/(S(‘HIGH’)−S(‘LOW’))100. Compounds will give values between 100% CTL (no inhibition) and 0% CTL (complete inhibition).
# For IC50 value determination, the sample slope in the presence of the test compound after subtraction of the low controls (S(compound)−S(‘LOW’)) are used.
# An IC50 value is derived from the compound slopes at different dosages after subtraction of the low controls (S(compound)−S(‘LOW’)) by non-linear regression curve fitting (equation y=(A+((B−A)/(1+((C/x)^D))))).
# T1 sequence (O00763 129-2458 limits assumed): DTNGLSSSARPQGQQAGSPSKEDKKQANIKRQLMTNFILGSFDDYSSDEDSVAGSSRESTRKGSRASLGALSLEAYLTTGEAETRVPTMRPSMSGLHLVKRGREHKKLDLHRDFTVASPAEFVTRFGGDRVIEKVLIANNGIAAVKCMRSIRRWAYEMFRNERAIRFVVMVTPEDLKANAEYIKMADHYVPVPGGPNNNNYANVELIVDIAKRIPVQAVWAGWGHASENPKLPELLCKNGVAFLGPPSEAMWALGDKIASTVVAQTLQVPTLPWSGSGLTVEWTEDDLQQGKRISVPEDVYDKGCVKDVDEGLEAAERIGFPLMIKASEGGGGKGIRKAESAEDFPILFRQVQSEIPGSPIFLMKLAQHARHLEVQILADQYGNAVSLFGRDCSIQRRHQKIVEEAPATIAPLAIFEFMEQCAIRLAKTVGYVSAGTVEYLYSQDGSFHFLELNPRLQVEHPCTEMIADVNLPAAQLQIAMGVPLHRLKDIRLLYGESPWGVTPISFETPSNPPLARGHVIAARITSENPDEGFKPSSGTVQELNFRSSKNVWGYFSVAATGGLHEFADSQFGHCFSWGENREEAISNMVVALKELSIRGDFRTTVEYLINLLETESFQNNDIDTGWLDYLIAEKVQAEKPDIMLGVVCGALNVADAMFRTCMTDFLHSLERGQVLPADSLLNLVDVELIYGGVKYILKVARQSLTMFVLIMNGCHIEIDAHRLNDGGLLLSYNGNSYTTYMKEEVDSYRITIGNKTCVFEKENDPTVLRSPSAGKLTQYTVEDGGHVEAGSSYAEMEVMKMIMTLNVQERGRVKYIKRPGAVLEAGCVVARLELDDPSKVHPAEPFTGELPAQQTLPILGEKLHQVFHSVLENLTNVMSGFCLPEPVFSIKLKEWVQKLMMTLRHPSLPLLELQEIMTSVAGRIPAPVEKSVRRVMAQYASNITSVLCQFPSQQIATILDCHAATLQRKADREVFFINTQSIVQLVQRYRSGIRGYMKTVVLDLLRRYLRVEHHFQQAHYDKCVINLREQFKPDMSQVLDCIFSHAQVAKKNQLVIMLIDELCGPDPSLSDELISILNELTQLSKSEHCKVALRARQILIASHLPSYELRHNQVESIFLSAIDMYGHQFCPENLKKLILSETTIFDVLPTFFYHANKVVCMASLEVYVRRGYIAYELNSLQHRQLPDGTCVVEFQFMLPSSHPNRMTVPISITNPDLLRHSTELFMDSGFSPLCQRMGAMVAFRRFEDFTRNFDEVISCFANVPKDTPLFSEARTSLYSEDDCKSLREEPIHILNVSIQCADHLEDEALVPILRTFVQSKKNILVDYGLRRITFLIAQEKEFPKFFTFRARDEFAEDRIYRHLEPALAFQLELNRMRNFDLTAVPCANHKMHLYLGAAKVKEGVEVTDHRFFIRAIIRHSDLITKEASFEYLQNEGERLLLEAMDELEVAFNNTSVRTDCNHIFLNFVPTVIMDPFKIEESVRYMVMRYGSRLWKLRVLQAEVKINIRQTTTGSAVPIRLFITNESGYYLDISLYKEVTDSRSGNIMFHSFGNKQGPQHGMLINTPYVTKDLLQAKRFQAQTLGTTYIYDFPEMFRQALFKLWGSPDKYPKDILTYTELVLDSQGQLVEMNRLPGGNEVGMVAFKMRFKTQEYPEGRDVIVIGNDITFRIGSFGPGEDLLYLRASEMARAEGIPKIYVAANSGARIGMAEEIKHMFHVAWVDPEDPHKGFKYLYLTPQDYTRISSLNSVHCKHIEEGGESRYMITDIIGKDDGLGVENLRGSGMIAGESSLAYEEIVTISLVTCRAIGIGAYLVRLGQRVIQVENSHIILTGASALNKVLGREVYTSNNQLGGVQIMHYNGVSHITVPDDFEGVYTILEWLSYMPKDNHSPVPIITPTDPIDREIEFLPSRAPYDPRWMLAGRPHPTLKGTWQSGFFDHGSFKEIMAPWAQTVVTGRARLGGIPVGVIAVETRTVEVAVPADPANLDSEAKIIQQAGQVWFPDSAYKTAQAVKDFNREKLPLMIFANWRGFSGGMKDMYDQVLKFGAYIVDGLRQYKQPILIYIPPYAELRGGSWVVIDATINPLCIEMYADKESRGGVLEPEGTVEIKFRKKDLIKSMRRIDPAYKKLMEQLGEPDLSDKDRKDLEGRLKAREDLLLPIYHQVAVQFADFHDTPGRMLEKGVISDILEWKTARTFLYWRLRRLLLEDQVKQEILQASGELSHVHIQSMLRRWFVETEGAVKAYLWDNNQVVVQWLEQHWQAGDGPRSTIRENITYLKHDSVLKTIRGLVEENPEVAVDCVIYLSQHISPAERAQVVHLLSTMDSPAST
row,pIC50,Compound
1,5.81,CCNC(=O)N[C@@H](C)c1ccc(N2CC(Oc3ccc(OCC)cc3)C2)cc1 [Example 4.2]
2,6.00,CCOc1ccc(OC2CN(c3ccc([C@H](C)NC(=O)NC)cc3)C2)cc1 [Example 4.3]
3,5.79,CCOc1ccc(OC2CN(c3ccc([C@H](C)NC(=O)N4CC(O)C4)cc3)C2)cc1 [Example 4.4]
4,5.25,CCOc1ccc(OC2CN(c3ccc([C@H](C)NC(=O)N(C)CC4CC4)cc3)C2)cc1 [Example 4.5]
5,5.64,CCOc1ccc(OC2CN(c3ccc([C@H](C)NC(=O)Nc4cc[nH]n4)cc3)C2)cc1 [Example 4.7]
6,5.86,CCOc1ccc(OC2CN(c3ccc([C@H](C)NC(=O)N(C)CCOC)cc3)C2)cc1 [Example 4.8]
7,6.07,CCOc1ccc(OC2CN(c3ccc([C@H](C)NC(=O)N(C)CC)cc3)C2)cc1 [Example 4.9]
8,5.51,CCOc1ccc(OC2CN(c3ccc([C@H](C)NC(=O)N(C)C(C)C)cc3)C2)cc1 [Example 4.10]
9,5.63,CCOc1ccc(OC2CN(c3ccc([C@H](C)NC(=O)N4CCC4)cc3)C2)cc1 [Example 4.11]
10,5.79,CCOc1ccc(OC2CN(c3ccc([C@H](C)NC(=O)N(CC#N)C4CC4)cc3)C2)cc1 [Example 4.12]
11,6.43,CCOc1ccc(OC2CN(c3ccc([C@H](C)NC(=O)N(C)c4cccnc4)cc3)C2)cc1 [Example 4.13]
12,5.46,CCOc1ccc(OC2CN(c3ccc([C@H](C)NC(=O)N(C)C4CC4)cc3)C2)cc1 [Example 4.14]
13,7.15,C[C@H](NC(=O)N(C)C)c1ccc(N2CC(Oc3ccc(OCC4CC4)cc3)C2)cc1 [Example 4.15]
14,6.55,CCNC(=O)N[C@@H](C)c1ccc(N2CC(Oc3ccc(OCC4CC4)cc3)C2)cc1 [Example 4.16]
15,5.95,C[C@H](NC(=O)N(C)C1CC1)c1ccc(N2CC(Oc3ccc(OCC4CC4)cc3)C2)cc1 [Example 4.17]
16,6.47,"CCOc1ccc(OC2CN(c3ccc([C@H](C)NC4=CC(=O)OC4)cc3)C2)cc1 [Example 5.1, (S)-4-(1-{4-[3-(4-Ethoxy-phenoxy)-azetidin-1-yl]-phenyl}-ethylamino)-5H-furan-2-one]"
17,6.59,"CC(=O)N[C@@H](C)c1ccc(N2CC(Oc3ccc(C(C)(C)C)cc3)C2)cc1 [Example 6.1, (S)—N-(1-{4-[3-(4-tert-Butyl-phenoxy)-azetidin-1-yl]-phenyl}-ethyl)-acetamide]"
18,6.92,"CCOc1ccc(OC2CN(c3ccc([C@H](C)NC(C)=O)cc3)C2)c(F)c1 [Example 7.1, (S)—N-(1-{4-[3-(4-Ethoxy-2-fluoro-phenoxy)-azetidin-1-yl]-phenyl}-ethyl)-acetamide]"
19,5.62,"CCOc1ccc(OC2CN(c3ccc([C@H](C)NC(=O)C4CC4)cc3)C2)c(F)c1 [Example 7.2, (S)-Cyclopropanecarboxylic acid (1-{4-[3-(4-ethoxy-2-fluoro-phenoxy)-azetidin-1-yl]-phenyl}-ethyl)-amide]"
20,6.60,"CCOc1ccc(OC2CN(c3ccc([C@H](C)NC(=O)N(C)C)cc3)C2)c(F)c1 [Example 8.1, (S)-3-(1-{4-[3-(4-Ethoxy-2-fluoro-phenoxy)-azetidin-1-yl]-phenyl}-ethyl)-1,1-dimethyl-urea]"
21,5.53,"CCOc1ccc(OC2CN(c3ccc([C@H](C)NC(=O)c4cn[nH]c4)cc3)C2)c(F)c1 [Example 8.2, (S)-1H-Pyrazole-4-carboxylic acid (1-{4-[3-(4-ethoxy-2-fluoro-phenoxy)-azetidin-1-yl]-phenyl}-ethyl)-amide]"
22,5.86,"C[C@H](NC(=O)OC(C)(C)C)c1ccc(N2CC(Oc3ccc(OCC4CC4)cc3)C2)cc1 [Example 8.3, (S)-(1-{4-[3-(4-Cyclopropylmethoxy-phenoxy)-azetidin-1-yl]-phenyl}-ethyl)-carbamic acid tert-butyl ester]"
23,6.96,"CCOc1ccc(OC2CN(c3ccc([C@H](C)NC(=O)c4sc(NC(C)=O)nc4C)cc3)C2)c(F)c1 [Example 8.4, (S)-2-Acetylamino-4-methyl-thiazole-5-carboxylic acid (1-{4-[3-(4-ethoxy-2-fluoro-phenoxy)-azetidin-1-yl]-phenyl}-ethyl)-amide]"
24,6.85,"CC(=O)N[C@@H](C)c1ccc(N2CC(Oc3ccc(OCc4ccccc4)cc3)C2)cc1 [Example 8.5, (S)—N-(1-{4-[3-(4-Benzyloxy-phenoxy)-azetidin-1-yl]-phenyl}-ethyl)-acetamide]"
25,6.77,"CCOc1ccc(OC2CN(c3ccc(C(C)NC(C)=O)cn3)C2)cc1 (centres unmarked) [Example 8.6, N-(1-{6-[3-(4-Ethoxy-phenoxy)-azetidin-1-yl]-pyridin-3-yl}-ethyl)-acetamide]"
26,5.65,"CC(=O)N[C@@H](C)c1ccc(N2CC(Oc3cc(OCc4ccccc4)ccn3)C2)cc1 [Example 8.7, (S)—N-(1-{4-[3-(4-Benzyloxy-pyridin-2-yloxy)-azetidin-1-yl]-phenyl}-ethyl)-acetamide]"
27,6.09,"CC(=O)N[C@@H](C)c1ccc(N2CC(Oc3ccc(C(F)(F)F)cn3)C2)cc1 [Example 8.8, (S)—N-(1-{4-[3-(5-Trifluoromethyl-pyridin-2-yloxy)-azetidin-1-yl]-phenyl}-ethyl)-acetamide]"

row,pIC50,Compound
1,7.15,"CC(=O)N[C@@H](C)c1ccc(N2CC(Oc3ccc(OC(C)C)cc3)C2)cc1 [Example 9.1, (S)—N-(1-{4-[3-(4-Isopropoxy-phenoxy)-azetidin-1-yl]-phenyl}-ethyl)-acetamide]"
2,7.05,CCOc1ccc(OC2CN(c3ccc([C@H](C)NC(C)=O)cc3)C2)cc1 [Example 9.2]
3,7.30,CCCOc1ccc(OC2CN(c3ccc([C@H](C)NC(C)=O)cc3)C2)cc1 [Example 9.3]
4,7.40,CC(=O)N[C@@H](C)c1ccc(N2CC(Oc3ccc(OC4CCC4)cc3)C2)cc1 [Example 9.4]
5,7.40,CC(=O)N[C@@H](C)c1ccc(N2CC(Oc3ccc(OCC4CC4(F)F)cc3)C2)cc1 (some centres unmarked) [Example 9.5]
6,5.89,"CC(=O)N[C@@H](C)c1ccc(N2CC(Oc3ccc(C)c(F)c3F)C2)cc1 [Example 10.1, (S)—N-(1-{4-[3-(2,3-Difluoro-4-methyl-phenoxy)-azetidin-1-yl]-phenyl}-ethyl)-acetamide]"
7,6.11,CC(=O)N[C@@H](C)c1ccc(N2CC(Oc3ccc(OC(F)(F)F)cc3)C2)cc1 [Example 10.2]
8,6.04,CC(=O)N[C@@H](C)c1ccc(N2CC(Oc3ccc(-n4cccc4)cc3Cl)C2)cc1 [Example 10.3]
9,6.55,COc1ccc(OC2CN(c3ccc([C@H](C)NC(C)=O)cc3)C2)c(F)c1 [Example 10.4]
10,6.19,CC(=O)N[C@@H](C)c1ccc(N2CC(Oc3ccc(OC(C)(C)C)cc3)C2)cc1 [Example 10.5]
11,6.48,CCOc1cc(F)c(OC2CN(c3ccc([C@H](C)NC(C)=O)cc3)C2)c(F)c1 [Example 10.6]
12,6.70,CCOc1ccc(OC2CN(c3ccc([C@H](C)NC(C)=O)cc3)C2)c(F)c1F [Example 10.7]
13,6.13,COc1ccc(OC2CN(c3ccc([C@H](C)NC(C)=O)cc3)C2)cn1 [Example 10.8]
14,6.92,CCC(C)c1ccc(OC2CN(c3ccc([C@H](C)NC(C)=O)cc3)C2)cc1 (some centres unmarked) [Example 10.10]
15,7.00,CC(=O)N[C@@H](C)c1ccc(N2CC(Oc3ccc4oc(C)cc4c3)C2)cc1 [Example 10.11]
16,6.10,CC(=O)N[C@@H](C)c1ccc(N2CC(Oc3ccccc3)C2)cc1 [Example 10.12]
17,6.49,CC(=O)N[C@@H](C)c1ccc(N2CC(Oc3ccc4c(c3)OCO4)C2)cc1 [Example 10.13]
18,6.21,CC(=O)N[C@@H](C)c1ccc(N2CC(Oc3ccc(C)cc3)C2)cc1 [Example 10.14]
19,6.02,CC(=O)N[C@@H](C)c1ccc(N2CC(Oc3ccccc3C)C2)cc1 [Example 10.15]
20,5.65,CC(=O)N[C@@H](C)c1ccc(N2CC(Oc3ccc(Cl)cc3F)C2)cc1 [Example 10.16]
21,6.96,CC(=O)N[C@@H](C)c1ccc(N2CC(Oc3cc(C(F)(F)F)ccc3F)C2)cc1 [Example 10.17]
22,6.25,COc1ccc(OC2CN(c3ccc([C@H](C)NC(C)=O)cc3)C2)c(F)c1F [Example 10.18]
23,6.85,COCCOc1ccc(OC2CN(c3ccc([C@H](C)NC(C)=O)cc3)C2)cc1 [Example 10.19]
24,5.36,C[C@H](NC(=O)C1CC1)c1ccc(N2CC(Oc3ccc(OC(F)(F)F)cc3)C2)cc1 [Example 10.20]
25,5.40,COc1ccc(OC2CN(c3ccc([C@H](C)NC(=O)C4CC4)cc3)C2)c(F)c1 [Example 10.21]
26,5.90,C[C@H](NC(=O)C1CC1)c1ccc(N2CC(Oc3ccc(OC(C)(C)C)cc3)C2)cc1 [Example 10.22]
